# Laboratory results as given in patent US20220055989A1, “CONDENSED PYRROLES AS NOVEL BROMODOMAIN INHIBITORS” (ALBERT LUDWING UNIVERSITÄT FREIBURG, priority 2018, published 2022).
# Key:
# ATAD2B = biological target: T1, ATAD2B (Homo sapiens, UniProt Q9ULI0); experiment: BROMOscan Kd determination ATAD2B; type: binding
# T1 construct: T7 phage strains displaying bromodomains were grown in parallel; made in house; host or cells: T7 phage grown in an E. coli host derived from the BL21 strain
# Method: (§1) Bromodomain profiling was carried out on the basis of BROMOscan™. This platform accounted for the indirect determination of the dissociation constants between 19 bromodomains and the compound of formula (13), by binding competition against a reference immobilized ligand. Compounds that bind the bromodomain prevent its binding to the immobilized ligand thus reducing the amount of protein captured. […] Hits are identified by measuring the amount of bromodomain captured in test versus control samples. Bromodomain assays for Kd determination: T7 phage strains displaying bromodomains were grown in parallel in 24-well blocks in an E. coli host derived from the BL21 strain. E. coli were grown to log-phase and infected with T7 phage from a frozen stock (multiplicity of infection=0.4) and incubated with shaking at 32° C. until lysis (90-150 minutes). The lysates were centrifuged (5,000×g) and filtered (0.2 μm) to remove cell debris. […] Kds were determined using an 11-point 3-fold compound dilution series with one DMSO control point. […] The bromodomain concentration in the eluates was measured by qPCR. […] Most Kds were determined using a compound top concentration=10,000 nM. […] Binding Constants (Kds): Binding constants (Kds) were calculated with a standard dose-response curve using the Hill equation: The Hill Slope was set to −1. […]
# TRIM33(PHD, Bromo.) = biological target: T2, TRIM33(PHD, Bromo.) (Homo sapiens, UniProt Q9UPN9); experiment: BROMOscan Kd determination TRIM33(PHD, Bromo.); type: binding
# T2 construct: TRIM33(PHD, Bromo.); the phage DNA is read by qPCR
# T2 sequence (Q9UPN9 whole entry): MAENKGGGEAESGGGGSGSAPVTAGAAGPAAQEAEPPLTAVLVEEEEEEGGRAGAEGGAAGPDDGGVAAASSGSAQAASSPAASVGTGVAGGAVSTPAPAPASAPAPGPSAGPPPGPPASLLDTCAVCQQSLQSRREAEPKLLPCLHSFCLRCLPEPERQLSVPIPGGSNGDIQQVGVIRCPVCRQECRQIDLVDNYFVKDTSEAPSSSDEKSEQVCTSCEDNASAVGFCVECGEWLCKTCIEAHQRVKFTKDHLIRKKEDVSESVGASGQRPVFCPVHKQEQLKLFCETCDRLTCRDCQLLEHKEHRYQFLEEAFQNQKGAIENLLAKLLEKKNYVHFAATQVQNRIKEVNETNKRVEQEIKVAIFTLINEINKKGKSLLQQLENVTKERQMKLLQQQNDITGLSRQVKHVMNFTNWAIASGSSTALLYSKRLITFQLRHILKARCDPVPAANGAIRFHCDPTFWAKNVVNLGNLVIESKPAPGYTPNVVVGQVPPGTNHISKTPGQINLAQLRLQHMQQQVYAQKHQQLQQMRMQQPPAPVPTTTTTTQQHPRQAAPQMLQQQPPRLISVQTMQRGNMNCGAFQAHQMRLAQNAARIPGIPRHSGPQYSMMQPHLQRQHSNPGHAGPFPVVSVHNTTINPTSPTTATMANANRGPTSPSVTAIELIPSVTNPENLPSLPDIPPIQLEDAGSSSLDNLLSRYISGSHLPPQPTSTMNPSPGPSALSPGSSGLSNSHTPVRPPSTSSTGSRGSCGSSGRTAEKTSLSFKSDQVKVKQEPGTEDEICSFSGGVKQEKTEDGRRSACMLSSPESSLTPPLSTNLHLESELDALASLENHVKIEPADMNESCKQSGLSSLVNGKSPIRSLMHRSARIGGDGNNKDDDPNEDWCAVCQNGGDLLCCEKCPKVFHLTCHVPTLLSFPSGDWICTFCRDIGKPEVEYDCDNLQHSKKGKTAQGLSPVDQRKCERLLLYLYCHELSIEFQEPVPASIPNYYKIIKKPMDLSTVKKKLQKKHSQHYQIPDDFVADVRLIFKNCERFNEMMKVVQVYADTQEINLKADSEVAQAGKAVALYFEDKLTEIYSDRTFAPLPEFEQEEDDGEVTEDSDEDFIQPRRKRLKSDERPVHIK
# Method: as §1
# BRD8(2) = biological target: T3, BRD8(2) (Homo sapiens, UniProt Q9H0E9); experiment: BROMOscan Kd determination BRD8(2); type: binding
# T3 construct: T7 phage strains displaying bromodomains were grown; host or cells: T7 phage in E. coli derived from BL21
# T3 sequence (Q9H0E9 1099-1207 limits assumed): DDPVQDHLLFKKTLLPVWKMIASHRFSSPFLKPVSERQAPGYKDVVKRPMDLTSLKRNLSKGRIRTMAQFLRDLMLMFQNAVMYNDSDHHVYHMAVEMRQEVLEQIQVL
# Method: as §1
# CREBBP = biological target: T4, CREBBP (Homo sapiens, UniProt Q92793); experiment: BROMOscan Kd determination CREBBP; type: binding
# T4 construct: T7 phage strains displaying bromodomains were grown; host or cells: T7 phage in E. coli derived from BL21
# T4 sequence (Q92793 1085-1192 limits assumed): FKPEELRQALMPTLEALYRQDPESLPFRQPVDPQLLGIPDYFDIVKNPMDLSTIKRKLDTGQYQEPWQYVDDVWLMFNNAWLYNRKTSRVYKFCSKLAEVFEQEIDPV
# Method: as §1
# BRD4(short-iso.) = biological target: T5, BRD4(short-iso.) (Homo sapiens, UniProt O60885); experiment: BROMOscan Kd determination BRD4(short-iso.); type: binding
# T5 construct: host or cells: T7 phage in E. coli derived from BL21
# Method: as §1
# TRIM24 (Bromo.) = biological target: T6, TRIM24 (Bromo.) (Homo sapiens, UniProt O15164); experiment: BROMOscan Kd determination TRIM24 (Bromo.); type: binding
# T6 construct: T7 phage strains displaying bromodomains were grown in parallel; host or cells: T7 phage grown in E. coli host derived from BL21
# T6 sequence (O15164 899-1004 limits assumed): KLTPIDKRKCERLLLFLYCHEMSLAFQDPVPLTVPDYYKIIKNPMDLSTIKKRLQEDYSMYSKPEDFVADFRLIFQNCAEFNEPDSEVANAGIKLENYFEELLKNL
# Method: as §1
# ATAD2A [1] = biological target: T7, ATAD2A (Homo sapiens, UniProt Q6PL18); experiment: BROMOscan Kd determination ATAD2A; type: binding
# T7 construct: T7 phage strains displaying bromodomains were grown in parallel; made in house; host or cells: T7 phage grown in an E. coli host derived from the BL21 strain
# T7 sequence (Q6PL18 980-1092 limits assumed): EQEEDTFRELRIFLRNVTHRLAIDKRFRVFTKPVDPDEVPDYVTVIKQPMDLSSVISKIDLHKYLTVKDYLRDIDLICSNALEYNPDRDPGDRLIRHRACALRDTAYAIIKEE
# Method: as §1
# ATAD2A [2] = biological target: T7, ATAD2A; experiment: Bromodomain assay % Ctrl determination ATAD2A; details: lower numbers indicate a stronger binding
# Method: (§2) Compounds that bind the bromodomain prevent its binding to the immobilized ligand thus reducing the amount of protein captured. […] Hits are identified by measuring the amount of bromodomain captured in test versus control samples. Bromodomain assays for % Ctrl determination: T7 phage strains displaying bromodomains were grown in parallel in 24-well blocks in an E. coli host derived from the BL21 strain. E. coli were grown to log-phase and infected with T7 phage from a frozen stock (multiplicity of infection=0.4) and incubated with shaking at 32° C. until lysis (90-150 minutes). The lysates were centrifuged (5,000×g) and filtered (0.2 μm) to remove cell debris. […] The liganded beads were blocked with excess biotin and washed with blocking buffer (SeaBlock (Pierce), 1% BSA, 0.05% Tween 20, 1 mM DTT) to remove unbound ligand and to reduce non-specific phage binding. […] Test compounds were prepared as 1000× stocks in 100% DMSO and subsequently diluted 1:25 in monoethylene glycol (MEG). The compounds were then diluted directly into the assays such that the final concentrations of DMSO and MEG were 0.1% and 2.4%, respectively. All reactions were performed in polypropylene 384-well plates in a final volume of 0.02 ml. […] The bromodomain concentration in the eluates was measured by qPCR. […]
# BRD2(2) = biological target: T8, BRD2(2) (Homo sapiens, UniProt P25440); experiment: Bromodomain assay % Ctrl determination BRD2(2); details: lower numbers indicate a stronger binding
# T8 construct: T7 phage strains displaying bromodomains were grown in parallel; made in house; host or cells: T7 phage grown in an E. coli host derived from the BL21 strain
# T8 sequence (P25440 344-453 limits assumed): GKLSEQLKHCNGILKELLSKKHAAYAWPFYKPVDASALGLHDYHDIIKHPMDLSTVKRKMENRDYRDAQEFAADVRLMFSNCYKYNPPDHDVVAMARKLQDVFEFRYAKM
# Method: as §2
# BRDT(1) = biological target: T9, BRDT(1) (Homo sapiens, UniProt Q58F21); experiment: Bromodomain assay % Ctrl determination BRDT(1); details: lower numbers indicate a stronger binding
# T9 construct: T7 phage strains displaying bromodomains were grown; host or cells: T7 phage in E. coli derived from BL21
# Method: as §2
# BAZ2A = biological target: T10, BAZ2A (Homo sapiens, UniProt Q9UIF9); experiment: Bromodomain assay % Ctrl determination BAZ2A; details: lower numbers indicate a stronger binding
# T10 construct: T7 phage strains displaying bromodomains were grown in parallel; made in house; host or cells: T7 phage grown in an E. coli host derived from the BL21 strain
# T10 sequence (Q9UIF9 1793-1897 limits assumed): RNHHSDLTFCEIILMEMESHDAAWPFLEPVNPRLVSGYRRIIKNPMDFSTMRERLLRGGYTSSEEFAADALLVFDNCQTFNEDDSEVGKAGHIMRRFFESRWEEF
# Method: as §2
# BRD4(2) = biological target: T11, BRD4(2) (Homo sapiens, UniProt O60885); experiment: Bromodomain assay % Ctrl determination BRD4(2); details: lower numbers indicate a stronger binding
# T11 construct: T7 phage strains displaying bromodomains were grown; host or cells: T7 phage in E. coli derived from BL21
# Method: as §2
# TRIM33(PHD, Bromo) = experiment: Bromodomain assay % Ctrl determination TRIM33(PHD, Bromo); details: lower numbers indicate a stronger binding
# Method: as §2
# BRD7 = biological target: T12, BRD7 (Homo sapiens, UniProt Q9NPI1); experiment: Bromodomain assay % Ctrl determination BRD7; details: lower numbers indicate a stronger binding
# T12 construct: T7 phage strains displaying bromodomains were grown; host or cells: T7 phage in E. coli derived from BL21
# T12 sequence (Q9NPI1 131-235 limits assumed): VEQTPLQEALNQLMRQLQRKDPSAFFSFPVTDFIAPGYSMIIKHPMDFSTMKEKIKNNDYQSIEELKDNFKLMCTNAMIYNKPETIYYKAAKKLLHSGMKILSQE
# Method: as §2
# PCAF = biological target: T13, PCAF (Homo sapiens, UniProt Q92831); experiment: Bromodomain assay % Ctrl determination PCAF; details: lower numbers indicate a stronger binding
# T13 construct: T7 phage strains displaying bromodomains were grown in parallel; host or cells: T7 phage grown in E. coli host derived from BL21
# T13 sequence (Q92831 723-827 limits assumed): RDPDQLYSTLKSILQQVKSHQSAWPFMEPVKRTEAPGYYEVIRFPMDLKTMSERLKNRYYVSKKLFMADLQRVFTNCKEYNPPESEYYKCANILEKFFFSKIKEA
# Method: as §2
# PBRM1(2) = biological target: T14, PBRM1(2) (Homo sapiens, UniProt Q86U86); experiment: Bromodomain assay % Ctrl determination PBRM1(2); details: lower numbers indicate a stronger binding
# T14 construct: FALZ, PBRM1-BD2, BPRM1-BDS, TAF1-BD2, TAF1L-BD2; host or cells: T7 phage grown in E. coli host derived from BL21
# T14 sequence (Q86U86 177-287 limits assumed): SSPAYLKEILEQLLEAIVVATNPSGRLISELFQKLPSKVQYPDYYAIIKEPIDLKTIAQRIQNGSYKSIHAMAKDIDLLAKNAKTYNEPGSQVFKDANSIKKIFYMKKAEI
# Method: as §2
# T1 sequence (Q9ULI0 951-1066 limits assumed): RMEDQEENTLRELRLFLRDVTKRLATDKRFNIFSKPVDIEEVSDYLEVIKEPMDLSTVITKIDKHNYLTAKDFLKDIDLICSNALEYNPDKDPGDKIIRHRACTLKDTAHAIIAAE
Kd (ATAD2B),"Kd (TRIM33(PHD, Bromo.))",Kd (BRD8(2)),Kd (CREBBP),Kd (BRD4(short-iso.)),Kd (TRIM24 (Bromo.)),Kd (ATAD2A [1]),% Ctrl @ 10 000 nM ATAD2A (ATAD2A [2]),% Ctrl @ 10 000 nM BRD2(2) (BRD2(2)),% Ctrl @ 10 000 nM BRDT(1) (BRDT(1)),% Ctrl @ 10 000 nM BAZ2A (BAZ2A),% Ctrl @ 10 000 nM BRD4(2) (BRD4(2)),% Ctrl @ 10 000 nM BRD7 (BRD7),% Ctrl @ 10 000 nM PCAF (PCAF),% Ctrl @ 10 000 nM PBRM1(2) (PBRM1(2)),SMILES,"% Ctrl @ 10 000 nM TRIM33(PHD, Bromo) (TRIM33(PHD, Bromo))"
> 10 µM,7.7 µM,> 10 µM,0.42 µM,0.18 µM,1.4 µM,> 10 µM,,,,,,,,,Cc1[nH]c(-c2cc(N)ccc2Cl)c2c1C(=O)CCCC2 [Compound 23],
,,,,,,,94 % Ctrl,0.1 % Ctrl,0 % Ctrl,24 % Ctrl,0 % Ctrl,0 % Ctrl,20 % Ctrl,75 % Ctrl,"COc1ccc(S(=O)(=O)N2CCOCC2)cc1NC(=O)c1[nH]c(C)c2c1CCCCC2=O [Compound 13, N-(2-methoxy-5-(morpholinosulfonyl)phenyl)-3-methyl-4-oxo-2,4,5,6,7,8-hexahydrocyclohepta[c]pyrrole-1-carboxamide]",60 % Ctrl
